Tested on: not given
Assay: not given
Details: not given

| melting point | SMILES |
| --- | --- |
| 197 to 199 °C | C[C@@H]1COC(=O)N1c1nc(-c2ccc(Br)cc2)cs1 [Example 1, (4R)-3-[4-(4-Bromophenyl)-1,3-thiazol-2-yl]-4-methyl-1,3-oxazolidin-2-one] |
| 145 to 147 °C | CCC1(CC)COC(=O)N1c1nc(-c2ccc(C#N)cc2)cs1 [Example 2, 4-[2-(4,4-Diethyl-2-oxo-1,3-oxazolidin-3-yl)-1,3-thiazol-4-yl]benzonitrile] |
| 181 to 183 °C | CC1(C)COC(=O)N1c1nc(-c2cccc(C#N)c2)cs1 [Example 3, 3-[2-(4,4-dimethyl-2-oxo-1,3-oxazolidin-3-yl)-1,3-thiazol-4-yl]benzonitrile] |

Tested on: alkaline phosphatase activity in T47D cells
Assay: Effects of progestins and antiprogestins on alkaline phosphatase activity in T47D cells
Assay type: cell-based
Details: Homo sapiens, antagonist mode, in the presence of 1 nM progesterone, 24 h incubation, read-out: T47D Alkaline Phosphatase Activity IC50 (nM) or % inhibition
Experimental: (1) Effects of Progestins and Antiprogestins on Alkaline Phosphatase Activity in T47D Cells.
• PURPOSE: To identify progestins or antiprogestins by determining a compound's effect on alkaline phosphatase activity in T47D cells. A. Reagents:
Culture medium: • DMEM:F12 (1:1) (GIBCO, BRL) supplemented with 5% (v/v) charcoal stripped fetal bovine serum (not heat-inactivated), 100 U/mL penicillin, 100 μg/mL streptomycin, and 2 mM the GlutaMax™ reagent (GIBCO, BRL).
Alkaline phosphatase assay buffer: • I. 0.1M Tris-HCl, pH 9.8, containing 0.2% the Triton® X-100 reagent • II. 0.1M Tris-HCl, pH 9.8, containing 4 mM p-nitrophenyl phosphate (Sigma). B. Cell Culture and Treatment:
Frozen T47D cells were thawed in a 37° C. water bath and diluted to 280,000 cells/mL in culture medium. To each well in a 96-well plate (Falcon, Becton Dickinson Labware), 180 μL of diluted cell suspension was added.
Twenty μL of reference or test compounds diluted in the culture medium was then added to each well. When testing for progestin antagonist activity, reference antiprogestins or test compounds were added in the presence of 1 nM progesterone. The cells were incubated at 37° C. in a 5% CO2/humidified atmosphere for 24 h.
NOTE: For high throughput screening, one concentration of each compound was tested at 0.3 μg/mL. Based on an average molecular weight of 300 g/mol for the compounds in the library, the concentration was approximately 1 μM. Subsequently, active compounds were tested in dose response assays to determine EC50 and IC50. C. Alkaline Phosphatase Enzyme Assay:
At the end of treatment, the medium was removed from the plate. Fifty μL of assay buffer I was added to each well. […]
For reference and test compounds, a dose response curve was generated for dose (X-axis) vs. the rate of enzyme reaction (slope) (Y-axis). […] EC50 or IC50 values were calculated from the retransformed values. […]
Progesterone and trimegestone were reference progestins and RU486 was the reference antiprogestin. All reference compounds were run in full dose response curves and the EC50 and IC50 values were calculated.

| IC50 | SMILES |
| --- | --- |
| 5 nM | CCC1(CC)COC(=O)N1c1nc2c(s1)CCc1cc(C#N)ccc1-2 [Example 5, 2-(4,4-Diethyl-2-oxo-1,3-oxazolidin-3-yl)-4,5-dihydronaphtho[1,2-d][1,3]thiazole-7-carbonitrile] |
| 27.9 nM | CC1(C)COC(=O)N1c1nc2c(s1)CCc1cc(C#N)ccc1-2 [Example 6, 2-(4,4-Dimethyl-2-oxo-1,3-oxazolidin-3-yl)-4,5-dihydronaphtho[1,2-d][1,3]thiazole-7-carbonitrile] |
| 100 nM | CC1(C)COC(=O)N1c1nc2c(ccc3cc(C#N)ccc32)s1 [Example 7, 2-(4,4-Dimethyl-2-oxo-1,3-oxazolidin-3-yl)naphtho[1,2-d][1,3]thiazole-7carbonitrile] |

Reference: US7618989B2, “Tricyclic oxazolidone derivatives useful as PR modulators” (Wyeth, priority 2006, dated 2009)
